Experimental data published in ChEMBL document CHEMBL2412969, “Antihyperglycemic and antihyperlipidemic activities of 2-(4-[(2-hydroxybenzyl) amino]-phenyl amino-methyl)-phenol in STZ induced diabetic rats” (Eur J Med Chem, 2013).
The source made the active and inactive calls. The calls are words filed in the database; no cut-off is given here.

Experiments:
Rattus norvegicus [1] = experiment: Antihyperglycemic activity in Wistar albino rat streptozotocin-induced diabetic model assessed as reduction of blood glucose level at 20 mg/kg, po after 6 hrs (reference value: 372.5 +/- 15.6 mg/dl); type: functional
Rattus norvegicus [2] = experiment: Antihyperglycemic activity in Wistar albino rat streptozotocin-induced diabetic model assessed as reduction of blood glucose level at 20 mg/kg, po after 5 hrs (reference value: 372.2 +/- 16.6 mg/dl); type: functional
Rattus norvegicus [3] = experiment: Antihyperglycemic activity in Wistar albino rat streptozotocin-induced diabetic model assessed as reduction of blood glucose level at 20 mg/kg, po after 4 hrs (reference value: 373.5 +/- 15.6 mg/dl); type: functional
Rattus norvegicus [4] = experiment: Antihyperglycemic activity in Wistar albino rat streptozotocin-induced diabetic model assessed as reduction of blood glucose level at 20 mg/kg, po after 3 hrs (reference value: 384.33 +/- 17.33 mg/dl); type: functional
Rattus norvegicus [5] = experiment: Antihyperglycemic activity in Wistar albino rat streptozotocin-induced diabetic model assessed as reduction of blood glucose level at 20 mg/kg, po after 2 hrs (reference value: 386.66 +/- 17.5 mg/dl); type: functional
Rattus norvegicus [6] = experiment: Antihyperglycemic activity in Wistar albino rat streptozotocin-induced diabetic model assessed as reduction of blood glucose level at 20 mg/kg, po after 1 hr (reference value: 389.16 +/- 19 mg/dl); type: functional
Rattus norvegicus [7] = experiment: Antiatherosclerosis activity in Wistar albino rat streptozotocin-induced diabetic model assessed as protection from atherogenicity at 20 mg/kg, po qd for 30 days relative to control; type: functional
Rattus norvegicus [8] = experiment: Renalprotective activity in Wistar albino rat assessed as protection against streptozotocin-induced increase in creatinine level in blood at 20 mg/kg, po qd for 30 days; type: functional
Rattus norvegicus [9] = experiment: Renalprotective activity in Wistar albino rat assessed as protection against streptozotocin-induced increase in urea level in blood at 20 mg/kg, po qd for 30 days; type: functional
Rattus norvegicus [10] = experiment: Antihyperlipidemic activity in Wistar albino rat streptozotocin-induced diabetic model assessed as increase of serum HDL-cholesterol level at 20 mg/kg, po qd for 30 days; type: functional, organism-based; set-up: dose 20 mg/kg
Rattus norvegicus [11] = experiment: Antihyperlipidemic activity in Wistar albino rat streptozotocin-induced diabetic model assessed as reduction of serum VLDL-cholesterol level at 20 mg/kg, po qd for 30 days; type: functional, organism-based; set-up: dose 20 mg/kg
Rattus norvegicus [12] = experiment: Antihyperlipidemic activity in Wistar albino rat streptozotocin-induced diabetic model assessed as reduction of serum LDL level at 20 mg/kg, po qd for 30 days; type: functional, organism-based; set-up: dose 20 mg/kg
Rattus norvegicus [13] = experiment: Antihyperlipidemic activity in Wistar albino rat streptozotocin-induced diabetic model assessed as reduction of serum total cholesterol level at 20 mg/kg, po qd for 30 days; type: functional, organism-based; set-up: dose 20 mg/kg
Rattus norvegicus [14] = experiment: Antihyperlipidemic activity in Wistar albino rat streptozotocin-induced diabetic model assessed as reduction of serum triglyceride level at 20 mg/kg, po qd for 30 days; type: functional, organism-based; set-up: dose 20 mg/kg
Rattus norvegicus [15] = experiment: Antihyperglycemic activity in Wistar albino rat streptozotocin-induced diabetic model assessed as increase of body weight at 20 mg/kg, po qd measured on day 15 (reference value: -30.3%); type: functional
Rattus norvegicus [16] = experiment: Antihyperglycemic activity in Wistar albino rat streptozotocin-induced diabetic model assessed as reduction of fasting blood glucose level at 20 mg/kg, po qd measured on day 30 relative to control; type: functional
Rattus norvegicus [17] = experiment: Antihyperglycemic activity in Wistar albino rat streptozotocin-induced diabetic model assessed as reduction of fasting blood glucose level at 20 mg/kg, po qd measured on day 15 (reference value: 404.2 +/- 29.15 mg/dl); type: functional
Rattus norvegicus [18] = experiment: Antihyperglycemic activity in Wistar albino rat streptozotocin-induced diabetic model assessed as reduction of fasting blood glucose level at 20 mg/kg, po qd measured on day 1 (reference value: 416.4 +/- 24.2 mg/dl); type: functional

Compound: COc1ccc(Cl)cc1C(=O)NCCc1ccc(S(=O)(=O)NC(=O)NC2CCCCC2)cc1 [GLYBURIDE]
- Activity (Rattus norvegicus [1]): 206 mg/dL
- Activity (Rattus norvegicus [2]): 188.1 mg/dL
- Activity (Rattus norvegicus [3]): 197.6 mg/dL
- Activity (Rattus norvegicus [4]): 213.3 mg/dL
- Activity (Rattus norvegicus [5]): 237 mg/dL
- Activity (Rattus norvegicus [6]): 243.5 mg/dL
- Activity (Rattus norvegicus [7]): 55.5%
- Activity (Rattus norvegicus [8]): 0.425 mg/dL
- Activity (Rattus norvegicus [9]): 49.1 mg/dL
- Activity (Rattus norvegicus [10]): Active
- Activity (Rattus norvegicus [11]): Active
- Activity (Rattus norvegicus [12]): Active
- Activity (Rattus norvegicus [13]): Active
- Activity (Rattus norvegicus [14]): Active
- Activity (Rattus norvegicus [15]): -10%
- Activity (Rattus norvegicus [16]): 188.1 mg/dL
- Activity (Rattus norvegicus [17]): 204 mg/dL
- Activity (Rattus norvegicus [18]): 356 mg/dL
